# From PubChem BioAssay (NCI)
#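 Grown in 96-well plates, cells were treated for 48 hours with each compound at five concentrations. Insufficient inhibition: endpoint recorded as highest concentration tested. GI50: concentration for 50% inhibition of growth. At the TGI there is no net growth.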
# Key:
# Assay in all cases: NCI anticancer screen, dose series, 48 h
# 786-0 renal = system: 786-0 renal
# A498 renal = system: A498 renal
# A549 NSCLC = system: A549 NSCLC
# ACHN renal = system: ACHN renal
# BT-549 breast = system: BT-549 breast
# CAKI-1 renal = system: CAKI-1 renal
# CCRF-CEM leukemia = system: CCRF-CEM leukemia
# COLO 205 colon = system: COLO 205 colon
# DU-145 prostate = system: DU-145 prostate
# EKVX NSCLC = system: EKVX NSCLC
# HCC-2998 colon = system: HCC-2998 colon
# HCT-116 colon = system: HCT-116 colon
# HCT-15 colon = system: HCT-15 colon
# HL-60(TB) leukemia = system: HL-60(TB) leukemia
# HOP-62 NSCLC = system: HOP-62 NSCLC
# HOP-92 NSCLC = system: HOP-92 NSCLC
# HS 578T breast = system: HS 578T breast
# HT29 colon = system: HT29 colon
# IGROV1 ovarian = system: IGROV1 ovarian
# K-562 leukemia = system: K-562 leukemia
# KM12 colon = system: KM12 colon
# LOX IMVI melanoma = system: LOX IMVI melanoma
# M14 melanoma = system: M14 melanoma
# MALME-3M melanoma = system: MALME-3M melanoma
# MCF7 breast = system: MCF7 breast
# MDA-MB-231 breast = system: MDA-MB-231 breast
# MDA-MB-435 = system: MDA-MB-435
# MOLT-4 leukemia = system: MOLT-4 leukemia
# NCI-H226 lung = system: NCI-H226 lung
# NCI-H460 lung = system: NCI-H460 lung
# NCI-H522 lung = system: NCI-H522 lung
# NCI/ADR-RES ovarian = system: NCI/ADR-RES ovarian
# OVCAR-3 ovarian = system: OVCAR-3 ovarian
# OVCAR-4 ovarian = system: OVCAR-4 ovarian
# OVCAR-5 ovarian = system: OVCAR-5 ovarian
# OVCAR-8 ovarian = system: OVCAR-8 ovarian
# PC-3 prostate = system: PC-3 prostate
# RPMI-8226 leukemia = system: RPMI-8226 leukemia
# RXF 393 renal = system: RXF 393 renal
# SF-268 CNS = system: SF-268 CNS
# SF-295 CNS = system: SF-295 CNS
# SF-539 CNS = system: SF-539 CNS
# SK-MEL-2 melanoma = system: SK-MEL-2 melanoma
# SK-MEL-28 melanoma = system: SK-MEL-28 melanoma
# SK-MEL-5 melanoma = system: SK-MEL-5 melanoma
# SK-OV-3 ovarian = system: SK-OV-3 ovarian
# SN12C renal = system: SN12C renal
# SNB-19 CNS = system: SNB-19 CNS
# SNB-75 CNS = system: SNB-75 CNS
# SR leukemia = system: SR leukemia
# SW-620 colon = system: SW-620 colon
# T-47D breast = system: T-47D breast
# TK-10 renal = system: TK-10 renal
# U251 CNS = system: U251 CNS
# UACC-257 melanoma = system: UACC-257 melanoma
# UACC-62 melanoma = system: UACC-62 melanoma
# UO-31 renal = system: UO-31 renal
smiles,measurement,setting,value
C/C(=C(/c1ccc(O)cc1)c1ccc(OCCN(C)C)cc1)c1ccc(Cl)cc1,GI50,786-0 renal,14.8 µM
same,TGI,786-0 renal,29.5 µM
same,GI50,A498 renal,> 100 µM
same,TGI,A498 renal,> 100 µM
same,GI50,A549 NSCLC,50.9 µM
same,TGI,A549 NSCLC,> 100 µM
same,GI50,ACHN renal,29.1 µM
same,TGI,ACHN renal,89.4 µM
same,GI50,BT-549 breast,40.9 µM
same,TGI,BT-549 breast,> 100 µM
same,GI50,CAKI-1 renal,15.8 µM
same,TGI,CAKI-1 renal,40.9 µM
same,GI50,CCRF-CEM leukemia,25 µM
same,TGI,CCRF-CEM leukemia,77.7 µM
same,GI50,COLO 205 colon,17.6 µM
same,TGI,COLO 205 colon,33.1 µM
same,GI50,DU-145 prostate,34.3 µM
same,TGI,DU-145 prostate,> 100 µM
same,GI50,EKVX NSCLC,34.4 µM
same,TGI,EKVX NSCLC,> 100 µM
same,GI50,HCC-2998 colon,18.1 µM
same,TGI,HCC-2998 colon,35.1 µM
same,GI50,HCT-116 colon,14.8 µM
same,TGI,HCT-116 colon,28.7 µM
same,GI50,HCT-15 colon,18 µM
same,TGI,HCT-15 colon,37.7 µM
same,GI50,HL-60(TB) leukemia,17.9 µM
same,TGI,HL-60(TB) leukemia,39.3 µM
same,GI50,HOP-62 NSCLC,18.2 µM
same,TGI,HOP-62 NSCLC,38.7 µM
same,GI50,HOP-92 NSCLC,22.3 µM
same,TGI,HOP-92 NSCLC,90.3 µM
same,GI50,HS 578T breast,20 µM
same,TGI,HS 578T breast,75.9 µM
same,GI50,HT29 colon,16 µM
same,TGI,HT29 colon,31.9 µM
same,GI50,IGROV1 ovarian,31.6 µM
same,TGI,IGROV1 ovarian,> 100 µM
same,GI50,K-562 leukemia,19.6 µM
same,TGI,K-562 leukemia,53.8 µM
same,GI50,KM12 colon,25.6 µM
same,TGI,KM12 colon,72.6 µM
same,GI50,LOX IMVI melanoma,17.2 µM
same,TGI,LOX IMVI melanoma,32.1 µM
same,GI50,M14 melanoma,17.6 µM
same,TGI,M14 melanoma,35.3 µM
same,GI50,MALME-3M melanoma,16 µM
same,TGI,MALME-3M melanoma,30.9 µM
same,GI50,MCF7 breast,1.69 µM
same,TGI,MCF7 breast,27.2 µM
same,GI50,MDA-MB-231 breast,20.7 µM
same,TGI,MDA-MB-231 breast,46.1 µM
same,GI50,MDA-MB-435,16.6 µM
same,TGI,MDA-MB-435,31.4 µM
same,GI50,MOLT-4 leukemia,20 µM
same,TGI,MOLT-4 leukemia,52.5 µM
same,GI50,NCI-H226 lung,54.5 µM
same,TGI,NCI-H226 lung,> 100 µM
same,GI50,NCI-H460 lung,17.5 µM
same,TGI,NCI-H460 lung,32.9 µM
same,GI50,NCI-H522 lung,17.4 µM
same,TGI,NCI-H522 lung,38 µM
same,GI50,NCI/ADR-RES ovarian,28.3 µM
same,TGI,NCI/ADR-RES ovarian,> 100 µM
same,GI50,OVCAR-3 ovarian,24 µM
same,TGI,OVCAR-3 ovarian,69 µM
same,GI50,OVCAR-4 ovarian,35.4 µM
same,TGI,OVCAR-4 ovarian,> 100 µM
same,GI50,OVCAR-5 ovarian,33.7 µM
same,TGI,OVCAR-5 ovarian,> 100 µM
same,GI50,OVCAR-8 ovarian,31 µM
same,TGI,OVCAR-8 ovarian,> 100 µM
same,GI50,PC-3 prostate,23.7 µM
same,TGI,PC-3 prostate,74.8 µM
same,GI50,RPMI-8226 leukemia,20.8 µM
same,TGI,RPMI-8226 leukemia,54.5 µM
same,GI50,RXF 393 renal,13.8 µM
same,TGI,RXF 393 renal,28.1 µM
same,GI50,SF-268 CNS,36.3 µM
same,TGI,SF-268 CNS,> 100 µM
same,GI50,SF-295 CNS,21 µM
same,TGI,SF-295 CNS,42.1 µM
same,GI50,SF-539 CNS,16.1 µM
same,TGI,SF-539 CNS,30.1 µM
same,GI50,SK-MEL-2 melanoma,25.6 µM
same,TGI,SK-MEL-2 melanoma,84.2 µM
same,GI50,SK-MEL-28 melanoma,16.7 µM
same,TGI,SK-MEL-28 melanoma,31.5 µM
same,GI50,SK-MEL-5 melanoma,17.8 µM
same,TGI,SK-MEL-5 melanoma,33.5 µM
same,GI50,SK-OV-3 ovarian,48.7 µM
same,TGI,SK-OV-3 ovarian,> 100 µM
same,GI50,SN12C renal,32.5 µM
same,TGI,SN12C renal,> 100 µM
same,GI50,SNB-19 CNS,21.4 µM
same,TGI,SNB-19 CNS,51.1 µM
same,GI50,SNB-75 CNS,19.9 µM
same,TGI,SNB-75 CNS,> 100 µM
same,GI50,SR leukemia,18.8 µM
same,TGI,SR leukemia,47.9 µM
same,GI50,SW-620 colon,16.2 µM
same,TGI,SW-620 colon,31.7 µM
same,GI50,T-47D breast,12.2 µM
same,TGI,T-47D breast,59.5 µM
same,GI50,TK-10 renal,79.7 µM
same,TGI,TK-10 renal,> 100 µM
same,GI50,U251 CNS,16.5 µM
same,TGI,U251 CNS,31.9 µM
same,GI50,UACC-257 melanoma,16.9 µM
same,TGI,UACC-257 melanoma,32.7 µM
same,GI50,UACC-62 melanoma,18.5 µM
same,TGI,UACC-62 melanoma,36.5 µM
same,GI50,UO-31 renal,13.5 µM
same,TGI,UO-31 renal,28.8 µM
